Columns and labels:
Format in all cases: cell-based
[1] = test system: Mycobacterium tuberculosis strain 1; test: Agar Dilution Test (MIC), strain 1 (Isoniacid S, Rifampicin S, Streptomycin S); conditions: TABLE A; strain 1; MIC determined after 3, 4 and 5 weeks
[2] = test system: Mycobacterium tuberculosis strain 2; test: Agar Dilution Test (MIC), strain 2 (Isoniacid S, Rifampicin S, Streptomycin S); conditions: TABLE A; strain 2; MIC determined after 3, 4 and 5 weeks
[3] = test system: Mycobacterium tuberculosis strain 3; test: Agar Dilution Test (MIC), strain 3 (Isoniacid R, Rifampicin R, Streptomycin S); conditions: TABLE A; strain 3; MIC determined after 3, 4 and 5 weeks
[4] = test system: Mycobacterium tuberculosis strain 4; test: Agar Dilution Test (MIC), strain 4 (Isoniacid R, Rifampicin R, Streptomycin R); conditions: TABLE A; strain 4; MIC determined after 3, 4 and 5 weeks
[5] = test system: Mycobacterium tuberculosis strain 5; test: Agar Dilution Test (MIC), strain 5 (Isoniacid R, Rifampicin R, Streptomycin S); conditions: TABLE A; strain 5; MIC determined after 3, 4 and 5 weeks
[6] = test system: Mycobacterium tuberculosis strain 6; test: Agar Dilution Test (MIC), strain 6 (Isoniacid S, Rifampicin S, Streptomycin S); conditions: TABLE A; strain 6; MIC determined after 3, 4 and 5 weeks
[7] = test system: Mycobacterium tuberculosis strain 7; test: Agar Dilution Test (MIC), strain 7 (Isoniacid R, Rifampicin S, Streptomycin R); conditions: TABLE A; strain 7; MIC determined after 3, 4 and 5 weeks
[8] = test system: Mycobacterium tuberculosis strain 8; test: Agar Dilution Test (MIC), strain 8 (Isoniacid S, Rifampicin R, Streptomycin S); conditions: TABLE A; strain 8; MIC determined after 3, 4 and 5 weeks
[9] = test system: Mycobacterium tuberculosis strain 9; test: Agar Dilution Test (MIC), strain 9 (Isoniacid R, Rifampicin S, Streptomycin R); conditions: TABLE A, MIC determined after 3, 4 and 5 weeks
[10] = test system: Mycobacterium tuberculosis strain 10; test: Agar Dilution Test (MIC), strain 10 (Isoniacid S, Rifampicin S, Streptomycin S); conditions: TABLE A; strain 10; MIC determined after 3, 4 and 5 weeks
[11] = test system: Mycobacterium tuberculosis strain 11; test: Agar Dilution Test (MIC), strain 11 (Isoniacid S, Rifampicin S, Streptomycin S); conditions: TABLE A; strain 11; MIC determined after 3, 4 and 5 weeks
[12] = test system: Mycobacterium tuberculosis strain 12; test: Agar Dilution Test (MIC), strain 12 (Isoniacid S, Rifampicin S, Streptomycin S); conditions: TABLE A; strain 12; MIC determined after 3, 4 and 5 weeks
[13] = test system: Mycobacterium tuberculosis strain 13; test: Agar Dilution Test (MIC), strain 13 (Isoniacid S, Rifampicin S, Streptomycin S); conditions: TABLE A; strain 13; MIC determined after 3, 4 and 5 weeks
[14] = test system: Mycobacterium tuberculosis strain 14; test: Agar Dilution Test (MIC), strain 14 (Isoniacid S, Rifampicin S, Streptomycin S); conditions: TABLE A; strain 14; MIC determined after 3, 4 and 5 weeks
[15] = test system: Mycobacterium tuberculosis strain 15 (labor strain 137 kV); test: Agar Dilution Test (MIC), strain 15 = labor strain 137 kV (Isoniacid S, Rifampicin S, Streptomycin S); conditions: TABLE A; strain 15; MIC determined after 3, 4 and 5 weeks

| Structure (SMILES) | sensible (S) or resistant (R) [1] | sensible (S) or resistant (R) [2] | sensible (S) or resistant (R) [3] | sensible (S) or resistant (R) [4] | sensible (S) or resistant (R) [5] | sensible (S) or resistant (R) [6] | sensible (S) or resistant (R) [7] | sensible (S) or resistant (R) [8] | sensible (S) or resistant (R) [9] | sensible (S) or resistant (R) [10] | sensible (S) or resistant (R) [11] | sensible (S) or resistant (R) [12] | sensible (S) or resistant (R) [13] | sensible (S) or resistant (R) [14] | sensible (S) or resistant (R) [15] |
| --- | --- | --- | --- | --- | --- | --- | --- | --- | --- | --- | --- | --- | --- | --- | --- |
| [H]/N=C(/N)N[C@H]1[C@H](O)[C@@H](O)[C@H](O[C@@H]2O[C@@H](C)[C@](O)(C=O)[C@H]2O[C@@H]2O[C@@H](CO)[C@H](O)[C@@H](O)[C@@H]2NC)[C@@H](N/C(N)=N\[H])[C@@H]1O [Streptomycin] | S (sensible (S)) | S (sensible (S)) | S (sensible (S)) | R (A strain is designated as resistant if its MIC in testing according to the General Test Procedure after 3 to 5 weeks is higher than 20 μg/ml) | S (sensible (S)) | S (sensible (S)) | R (A strain is designated as resistant if its MIC in testing according to the General Test Procedure after 3 to 5 weeks is higher than 20 μg/ml) | S (sensible (S)) | R (A strain is designated as resistant if its MIC in testing according to the General Test Procedure after 3 to 5 weeks is higher than 20 μg/ml) | S (sensible (S)) | S (sensible (S)) | S (sensible (S)) | S (sensible (S)) | S (sensible (S)) | S (sensible (S)) |
| NNC(=O)c1ccncc1 [Isoniacid] | S (sensible (S)) | S (sensible (S)) | R (A strain is designated as resistant if its MIC in testing according to the General Test Procedure after 3 to 5 weeks is higher than 20 μg/ml) | R (A strain is designated as resistant if its MIC in testing according to the General Test Procedure after 3 to 5 weeks is higher than 20 μg/ml) | R (A strain is designated as resistant if its MIC in testing according to the General Test Procedure after 3 to 5 weeks is higher than 20 μg/ml) | S (sensible (S)) | R (A strain is designated as resistant if its MIC in testing according to the General Test Procedure after 3 to 5 weeks is higher than 20 μg/ml) | S (sensible (S)) | R (A strain is designated as resistant if its MIC in testing according to the General Test Procedure after 3 to 5 weeks is higher than 20 μg/ml) | S (sensible (S)) | S (sensible (S)) | S (sensible (S)) | S (sensible (S)) | S (sensible (S)) | S (sensible (S)) |
| CO[C@H]1/C=C/O[C@@]2(C)Oc3c(C)c(O)c4c(O)c(c(/C=N/N5CCN(C)CC5)c(O)c4c3C2=O)NC(=O)/C(C)=C\C=C\[C@H](C)[C@H](O)[C@@H](C)[C@@H](O)[C@@H](C)[C@H](OC(C)=O)[C@@H]1C [Rifampicin] | S (sensible (S)) | S (sensible (S)) | R (A strain is designated as resistant if its MIC in testing according to the General Test Procedure after 3 to 5 weeks is higher than 20 μg/ml) | R (A strain is designated as resistant if its MIC in testing according to the General Test Procedure after 3 to 5 weeks is higher than 20 μg/ml) | R (A strain is designated as resistant if its MIC in testing according to the General Test Procedure after 3 to 5 weeks is higher than 20 μg/ml) | S (sensible (S)) | S (sensible (S)) | R (A strain is designated as resistant if its MIC in testing according to the General Test Procedure after 3 to 5 weeks is higher than 20 μg/ml) | S (sensible (S)) | S (sensible (S)) | S (sensible (S)) | S (sensible (S)) | S (sensible (S)) | S (sensible (S)) | S (sensible (S)) |
